Assay results published in patent publication US8809389B2, “Substituted alkynyl phenoxy compounds as new synergists in pesticidal compositions” (Endura S.p.A., priority 2009, dated 2014).

Molecular target: T1, purified resistance-associated esterase (E4) (Myzus persicae, UniProt P35501)
T1 construct: 5 g of aphids (stored at −20° C.) were homogenised in 0.02 M phosphate buffer pH 7.0; from tissue; host or cells: whole Myzus persicae aphids, clone 794JZ; homogenate purified over G-25 and DEAE Sepharose Fast Flow
T1 sequence (P35501 24-552): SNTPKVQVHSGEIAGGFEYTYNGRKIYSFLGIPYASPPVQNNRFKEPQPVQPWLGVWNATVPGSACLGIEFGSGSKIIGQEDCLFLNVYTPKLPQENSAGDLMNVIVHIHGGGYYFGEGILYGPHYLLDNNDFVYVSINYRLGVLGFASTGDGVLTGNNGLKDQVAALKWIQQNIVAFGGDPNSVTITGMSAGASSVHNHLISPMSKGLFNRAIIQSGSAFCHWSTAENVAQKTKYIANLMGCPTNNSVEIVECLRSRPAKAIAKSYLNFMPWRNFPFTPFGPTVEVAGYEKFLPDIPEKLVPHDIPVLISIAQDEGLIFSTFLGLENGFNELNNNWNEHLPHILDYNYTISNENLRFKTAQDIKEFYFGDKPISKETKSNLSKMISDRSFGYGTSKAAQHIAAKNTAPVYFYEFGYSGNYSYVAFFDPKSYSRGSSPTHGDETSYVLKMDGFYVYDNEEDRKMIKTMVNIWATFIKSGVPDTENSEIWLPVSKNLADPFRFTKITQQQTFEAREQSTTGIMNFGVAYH
Assay: Esterase interference assay (indirect determination of esterase inhibition)
Format: biochemical
Details: for Esterase protection (%) after pre-incubation with compound: no esterase = 0%, uninhibited E4 = 100%
Excerpt: Measuring the in vitro inhibition is not straight forward, as synergists may bind to a site other than the active site.
The esterase used was the well-characterised resistance associated esterase purified from M. persicae, E4, (aphid clone: 794JZ) as per Devonshire (1977) with some modifications(Devonshire A L, The properties of a carboxylesterase from the peach-potato aphid, Myzus persicae (Sulz.) and its role in conferring insecticide resistance. Biochem J 167: 675-683 (1977)). Briefly, 5 g of aphids (stored at −20° C.) were homogenised in 0.02 M phosphate buffer pH 7.0 and centrifuged at 20 000 g for 10 min. The supernatant was passed through a G-25 column using 0.02M Tris/HCl, pH 8.5 buffer. Unretarded fractions containing esterase activity were further chromatographed through DEAF Sepharose Fast Flow (Amersham Biosciences) and eluted with a linear 0-0.35 M NaCl gradient in 500 ml of Tris/HCl as above. Fractions containing carboxylesterase activity in the form of E4 were concentrated, desalted, and buffer exchanged to 0.02 M phosphate pH 7.0 for storage.
Interactions of the purified resistance-associated esterase (E4) with Compound of Example 2, Compound of Example 3, Compound of Example 4, Compound of Example 9 and Compound of Example 11 were performed using the ‘esterase interference assay’, as described by Khot et al., with some modifications. Devonshire A L, The properties of a carboxylesterase from the peach-potato aphid, Myzus persicae (Sulz.) and its role in conferring insecticide resistance. Biochem J 167: 675-683 (1977)). Briefly, stock solutions of novel synergists (3 mM in acetone) were pre-incubated with pure E4, to give a final concentration of 0.03 mM, for 16 h at 4° C. Aliquots (15 μl ) of E4, E4+Compound of Example 2, E4+Compound of Example 3, E4+Compound of Example 4, E4+Compound of Example 9 and E4+Compound of Example 11 were incubated for 1 h with 60 μl of serial dilutions of azamethiphos in 0.02M phosphate buffer, pH 7, in separate wells of a NUNC microplate. Aliquots (25 p1) of house fly head homogenate (source of AChE) were added to each well and incubated for 15 minutes at room temperature. E4 in acetone and buffer only served as the positive and the negative controls respectively. AChE activity was measured at 405 nm using a Tmax kinetic microplate reader (Molecular Devices, Menlo Park, Calif.). Readings were taken automatically for 10 min at 10 s intervals. The rate (mOD min^−1) was calculated by the integrated software, Softmax Pro 4.6. All treatments were performed in triplicate.
No added esterase is giving 0% esterase protection and uninhibited esterase (E4) is giving 100% protection.
The materials and procedure as stated in Example 13, paragraphs 13.1, 13.1.2, 13.1.2.1 and 13.1.2.2. have been used and the following results have been obtained: […]

CC#CCOc1cc2c(cc1CCC)OCO2 [Example 3, 5-(but-2-ynyloxy)-6-propyl-benzo[1.3]dioxole]
Reduction of esterase protection, comparison in words (E4 esterase interference assay, Examples 13 and 16): better activity than compounds 4, 7, respectively
Esterase protection (%) after pre-incubation with compound (Table 2 (Example 13), 0.03 mM compound pre-incubated with E4 16 h at 4° C.): 0.97%
Esterase protection (%) after pre-incubation with compound (second 'TABLE 3' (Example 16), procedure as Example 13): 0.98%
